Experimental data published in patent publication US10076505B2, “Inhalation formulations of Treprostinil” (priority 2003, dated 2018).

Experiments:
sheep [1] = experiment: Intravenous and aerosolized UT-15 dose response on baseline hemodynamics (Example IV); assay type: in vivo; settings: baseline conditions; for PCV relative to baseline: any dose; for CO relative to baseline: any delivery rate; for PSYS: any rate
Description: Six yearling sheep (3 males, 3 females; 21-37 kg) were fasted 18-24 hours and initially anesthetized with a short acting barbiturate (thiopental) to allow intubation of the sheep. Halothane gas anesthesia (1.5-2.5%) was then used for the surgical procedures. Via a left thoracotomy, a Transonic blood flow probe was placed around the main pulmonary artery, silastic catheters placed in the main pulmonary artery and left atrium. After approximately 7 days the sheep were reanesthetized and the left carotid artery cannulated, a Cordis Introducer Sheath inserted in the left jugular vein, and a tracheotomy made. The sheep were allowed to recover for another 3-5 days prior to experimentation. These sheep were used to allow measurement of pulmonary arterial pressure (PPA), left atrial pressure (PLA), central venous pressure (PCV), systemic arterial pressure (PSYS), heart rate (HR), and cardiac output (CO) after baseline measurements were made for a minimum of 30 minutes. Two separate experiments were conducted to determine the dose response effects of intravenously infused UT-15 on baseline hemodynamics and aerosolized UT-15 on baseline hemodynamics. For the infusion experimental protocol, after a 30 minute baseline was established, UT-15 was infused intravenously at 3 rates (250, 500 and 1000 ng per kg per min). In three sheep, the infusion rates lasted for 30 minutes each, and for the other three sheep, the infusions were for 60 minutes each. […] Again, three sheep were aerosolized for 30 minutes and the other three sheep were aerosolized for 60 minutes.

sheep [2] = experiment: Intravenous and aerosolized UT-15 dose response during U44069 induced pulmonary hypertension (Example V); assay type: in vivo; settings: for left atrial pressure: all three delivery rates
Text: Sheep were used as the animal model of choice for these experiments for a number of reasons. First is the docile nature of sheep. They will stand quietly in metabolic cages without having to utilize tranquilizing drugs, which have the potential to complicate experimental results. Second, sheep are large enough to allow direct measurement of CO, PPA, PLA, PCV, and PSYS. Sheep are also large enough to allow direct aerosolization of substances into the lung via trachoestomy thereby preventing swallowing of drugs and thus eliminating a possible secondary route of administration of UT-15. Third, sheep can tolerate a great amount of instrumentation with little or no discomfort. Fourth, sheep have been utilized for several years as an animal model of pulmonary arterial hypertension and thus, there is a great amount of historical data with which to compare the results. […] The reasons for using U44069 are that it is a very potent pulmonary vasoconstrictor, its characteristics are very similar to endogenously formed thromboxane A2, and it can be titrated to induce the desired degree of pulmonary vasoconstriction. U44069 was mixed with sterile normal saline immediately prior to being used and was protected from light by wrapping the solution with aluminum foil. The concentration of U44069 was adjusted such that a minimal flow rate of 0.8 ml per min was being infused into the sheep. This was done because more concentrated U44069 would have to be infused at very low rates and often causes “pulses” of U44069 due to the infusion characteristics of roller pumps. The U44069 pulses cause vasoconstriction “spikes” and thus would create induce a non-steady-state. Six yearling sheep (3 males, 3 females; 21-37 kg) were fasted 18-24 hours and initially anesthetized with a short acting barbiturate (thiopental) to allow intubation of the sheep. Halothane gas anesthesia (1.5-2.5%) was then used for the surgical procedures. Via a left thoracotomy, a Transonic blood flow probe was placed around the main pulmonary artery, silastic catheters placed in the main pulmonary artery and left atrium. After approximately 7 days the sheep were reanesthetized and the left carotid artery cannulated, a Cordis Introducer Sheath inserted in the left jugular vein, and a tracheotomy made. The sheep were allowed to recover for another 3-5 days prior to experimentation. These sheep were used to allow measurement of pulmonary arterial pressure (PPA), left atrial pressure (PLA), central venous pressure (PCV), systemic arterial pressure (PSYS), heart rate (HR), and cardiac output (CO) after baseline measurements were made for a minimum of 30 minutes. Two separate experiments were conducted to determine the dose response effects of intravenously infused UT-15 and aerosolized UT-15 during U44069 induced pulmonary hypertension. After a 30 minute baseline was established, U44069 was infused intravenously at a rate of 1 ng per kg per min. For the intravenous administration of UT-15 and after allowing the sheep to achieve a steady-state for 30-60 minutes, a dose-response to intravenous UT-15 was similar to that set forth in Example IV. For the aerosolized administration of UT-15 and after allowing the sheep to achieve a steady-state for 30-60 minutes, a dose-response to intravenous UT-15 was similar to that set forth in Example IV. In each experimental protocol, UT-15 was administered to three sheep for 30 minutes and to the other three sheep for 60 minutes.

[3] = tested on: large blood vessels of the lower limbs; settings: patients with severe intermittent claudication; cited from earlier work
[4] = tested on: patients with class III or class IV heart failure; settings: cited from earlier work
[5] = during U44069 infusion, aerosol
[6] = during U44069 infusion, aerosolized
[7] = during U44069 infusion, intravascular
[8] = during U44069 infusion, intravenous

## CCCCC[C@H](O)CC[C@@H]1[C@H]2Cc3cccc(OCC(=O)O)c3C[C@H]2C[C@H]1O [UT-15, 9-deoxy-2′,9-alpha-methano-3-oxa-4,5,6-trinor-3,7-(1′,3′-interphenylene)-13,14-dihydro-prostaglandin F1]
Sheep [1]; aerosol
  PCV relative to baseline: no statistical difference
Sheep [1]; aerosolized (mean values increased)
  PLA relative to baseline: neither intravenous nor aerosolized UT-15 caused PLA to significantly change
Sheep [1]; aerosolized, 3 rates
  heart rate: no effect
Sheep [1]; aerosolized, 250, 500, and 100 ng per kg per min
  pulmonary vascular driving pressure (PPA minus PLA) change from baseline: significant
Sheep [1]; aerosolized, all 3 delivery rates
  PVR: significant decrease
Sheep [1]; aerosolized
  CO relative to baseline: no significant changes
  PSYS: no significant effect
Sheep [1]; aerosolized, not statistically different
  PPA relative to baseline: general trend for PPA to decrease
Sheep [1]; intravenous
  PVR: no significant effect
  CO relative to baseline: no significant changes
  PCV relative to baseline: no statistical difference
  PSYS: no significant effect
Sheep [1]; intravenous 250, 500 and 1000 ng per kg per min
  heart rate: significantly increased
Sheep [1]; intravenous (mean values decreased)
  PLA relative to baseline: neither intravenous nor aerosolized UT-15 caused PLA to significantly change
Sheep [1]; intravenous, same as PCV (no statistical difference)
  PPA relative to baseline: The same effects were also observed
Sheep [2]; [5]
  cardiac output: no effect
  time at which UT-15 began to attenuate the increase in PVR: 4 to 5 min
  left atrial pressure: increased above baseline
Sheep [2]; [6]
  heart rate: no effect
  off response (PVR): 43 min
  systemic arterial pressure: no statistical differences
Sheep [2]; during U44069 infusion, aerosolized, 500 and 1000 ng per kg per min
  PPA: back to normal values
Sheep [2]; during U44069 infusion, aerosolized, any of the three delivery rates
  PVR relative to baseline PVR: no significant difference
Sheep [2]; [7]
  PPA relative to U44069 value: decrease significantly
  pulmonary vascular driving pressure (PPA-PLA): unchanged
Sheep [2]; [8]
  off response (PVR): 12 min
  systemic arterial pressure: no statistical differences
  time at which UT-15 began to attenuate the increase in PVR: 4 to 5 min
Sheep [2]; during U44069 infusion, intravenous, 500 and 1000 ng per kg per min
  central venous pressure: different from the U44069 values
Sheep [2]; during U44069 infusion, intravenous, 500 and 1000 ng per kg per min different from U44069 values
  heart rate: increase above the values during U44069 conditions
Sheep [2]; during U44069 infusion, intravenous, significant at 500 and 100 ng per kg per min
  cardiac output: dose-response increase
Sheep [2]; during U44069 infusion, intravenously infused
  left atrial pressure: significant decrease from the U44069 value
Sheep [2]; intravenously infused, 500 and 1000 ng per kg per min
  U44069-induced increase in PVR: significantly attenuated
[3]
  blood flow in large blood vessels of the lower limbs: increase in blood flow
[4]
  vasodilator effects: vasodilator effects
